{"source": "patent US20240261302A1", "about": "“METHODS OF TREATING NEURODEGENERATIVE DISEASES OR CONDITIONS” (FloraScience Inc., priority 2023, published 2024)", "key": {"HT22 cells [1]": {"tested_on": "HT22 cells", "experiment": "Calcium Measurements (Fluo-4 AM, Rhod-2 AM)", "assay_type": "cell-based, mouse", "method": "Calcium Measurements. HT22 cells were seeded onto 96-well black walled plates at a density of 5,000 cells/well in DMEM supplemented with 10% FBS and 1% antibiotics. After the desired treatments, Ca^2+ levels were detected with Fluo-4 AM (Ex/Em=494/516 nm) and Rhod-2 AM (Ex/Em=552/581 nm) calcium indicator dyes specific to cytosol and mitochondria, respectively. Fluorescence was measured on a SpectraMax M5 microplate reader. Experiments were performed according to the manufacturer's instructions. Data were normalized for total protein/well. Each condition was analyzed in sixteen wells per independent experiment (n=16). Results were presented as the percentage of the controls with vehicle alone. Results were verified by live-cell imaging under a fluorescence microscope."}, "HT22 cells [2]": {"tested_on": "HT22 cells", "experiment": "Reactive Oxygen Species Measurement (CellROX, MitoSOX)", "assay_type": "cell-based, mouse", "method": "Reactive Oxygen Species Measurement. HT22 cells were seeded onto 96-well black walled plates at a density of 5,000 cells/well in DMEM supplemented with 10% FBS and 1% antibiotics. After the desired treatments, whole cell ROS and mitochondrial superoxide ROS were detected with CellROX Green reagent (Ex/Em=485/520 nm) and MitoSOX Red reagent (Ex/Em=510/580 nm), respectively. Experiments were performed according to the manufacturer's instructions. Fluorescence was measured on a SpectraMax M5 microplate reader. Data were normalized for total protein/well. Each condition was analyzed in sixteen wells per independent experiment (n=16). Results were presented as the percentage of the controls with vehicle alone. Results were verified by live-cell imaging under a fluorescence microscope."}, "CB1/CB2 receptors": {"tested_on": "CB1/CB2 receptors", "conditions": "cited from earlier work"}, "HT22 cells [3]": {"tested_on": "HT22 cells", "experiment": "Mitochondrial Membrane Potential Assay (JC-10) in HT22 cells", "assay_type": "cell-based, mouse", "conditions": "5 μM, 4 hr, p<0.0001", "method": "Mitochondrial Membrane Potential Assay. Cells seeded at 5,000 cells/well onto 96-well black walled plates were treated with test compounds at the desired concentrations under the culture condition described above. The mitochondrial uncoupler FCCP at 2 μM was used as a reference control. After the desired treatments for 4 hr, the cells were subjected to a JC-10 mitochondrial membrane potential assay according to the manufacturer's instruction. Fluorescence intensities (Ex/Em=490/525 nm, and Ex/Em=540/590 nm) of each well were monitored on a SpectraMax M5 microplate reader. The ratio of fluorescence intensity (590/525 nm) was used to determine the mitochondrial membrane potential (ΔΨm). Decreasing ratios indicate mitochondrial membrane depolarization. Samples were analyzed in eight to sixteen wells per independent experiment (n=8-16). Results were verified by live-cell imaging under a fluorescence microscope."}, "HT22 cells [4]": {"tested_on": "HT22 cells", "experiment": "Oxytosis/ferroptosis assay with erastin (Table 2)", "assay_type": "cell-based", "conditions": "Mus musculus, HT-22; erastin as inducer; method not given; read-out: Observed EC50 erastin"}, "HT22 cells [5]": {"tested_on": "HT22 cells", "experiment": "Oxytosis Assay (glutamate-induced cell death, MTT)", "assay_type": "cell-based, mouse", "method": "Oxytosis Assay. HT22 cells were seeded at 3,000 cells/well in 96-well tissue culture plates in DMEM plus 10% FBS and 1% antibiotics. After 24 hr of plating, the cells were pretreated with different concentrations of the test compounds or a vehicle control for 1 hr followed by coincubation with 5 mM glutamate to initiate the cell death cascade. After 16 hr of treatment, cell viability was measured by the 3−(4,5-dimethylthiazol-2-yl)-2,5-diphenyltetrazolium bromide (MTT) assay. Optical absorbance was measured at 570 nm on a SpectraMax M5 microplate reader. Samples were analyzed in eight to sixteen wells per independent experiment (n=8-16). Results were presented as the percentage of the controls with vehicle alone."}, "HT22 cells [6]": {"tested_on": "HT22 cells", "experiment": "Cytotoxicity assessment of CBN in HT22 cells", "assay_type": "cell-based, mouse", "method": "FIGS. 2A-2I show CBN inhibits oxytosis/ferroptosis in HT22 cells. Representative micrographs of HT22 cells following treatment for 16 h: (FIG. 2A) 0.2% ethanol treatment as vehicle control, (FIG. 2B) 5 μM CBN treatment, (FIG. 2C) 5 mM glutamate treatment, (FIG. 2D) 50 nM RSL3 treatment, (FIG. 2E) 5 μM CBN pretreatment for 1 h followed by 5 mM glutamate treatment, (FIG. 2F) 5 μM CBN pretreatment for 1 h followed by 50 nM RSL3 treatment. Micrographs show the representative morphological characteristics of the cell cultures under a given condition of 16 experimental replicates. Scale bar=100 μm. (FIG. 2G) Cells were pretreated with varying concentrations of CBN for 1 h followed by 5 mM glutamate treatment and incubation for 16 h. (FIG. 2H) Cells were pretreated with varying concentrations of CBN for 1 h followed by 50 nM RSL3 treatment and incubation for 16 h. The results are presented as the percentage of the neuroprotective activity relative to control (100%) and Glu/RSL3 (0%). The neuroprotection curves were analyzed by four-parameter regression. (FIG. 2I) Cytotoxicity assessment of CBN in HT22 cells. Cells were treated with increasing concentrations of CBN or 0.2% ethanol vehicle and incubated for 16 h. Data are the mean of 8-16 replicates per condition±SD."}, "[7]": {"tested_on": "HT22 mt-GFP/mCherry-Parkin cells", "experiment": "Cell viability after RSL3 with/without FCCP (CyQUANT DNA-based assay, fluorescence microscopy), mt-GFP/mCherry-Parkin cells", "design": "species or system mouse"}, "[8]": {"experiment": "Cell-free, liposome-based assay of lipid peroxidation (STY-BODIPY)", "assay_type": "biochemical", "conditions": "test compounds 10 μM", "method": "For the cell-free, liposome-based assay, STY-BODIPY (1.5 μM) and liposomes of egg-PC (1 mM) (Avanti Polar Lipids Inc, Cat #840051P, AL) in TBS (pH 7.4) were added to an opaque 96-well plate. This was followed by the addition of test compounds (10 μM). The plate was incubated for 30 min at 37° C. and then vigorously mixed for 5 min. The autoxidation was initiated by the addition of V-70 (0.5 mM) (Fujifilm Wako, Cat #001-70078, Japan), followed by additional mixing for 5 min. Data were acquired at Ex/Em=488/518 nm every 15 min at 37° C. on a SpectraMax M5 microplate reader. Data were transformed into [ox-STY-BODIPY] by taking the raw fluorescent values of the saturated curve of control DMSO and dividing them by the initial concentration of reduced STY-BODIPY ([…]). Samples were analyzed in quadruplicate in four independent experiments (n=4)."}}, "note": "Entries after “also recorded” stand apart in the source; their conditions may differ.", "data": [{"smiles": "CCCCCc1cc(O)c2c(c1)OC(C)(C)c1ccc(C)cc1-2", "note": "[CBN, 6,6,9-Trimethyl-3-pentyl-benzo[c]chromen-1-ol]", "values": [{"measurement": "Ca^2+ in cytosol and mitochondria, compound alone", "setting": "HT22 cells [1]; 5 μM, 16 hr", "result": "did not affect Ca^2+ influx"}, {"measurement": "Ca^2+ levels in cytosol and mitochondria with RSL3", "setting": "HT22 cells [1]; pretreatment 1 hr, co-incubation with RSL3", "result": "maintained basal Ca^2+ levels"}, {"measurement": "RSL3-induced ROS production at cellular and mitochondrial levels", "setting": "HT22 cells [2]; 50 nM RSL3, 16 hr", "result": "suppressed"}, {"measurement": "cellular and mitochondrial ROS (redox status), compound alone", "setting": "HT22 cells [2]; 5 μM, 16 hr", "result": "did not affect the redox status of cells or mitochondria"}, {"measurement": "activity at CB1/CB2 receptors", "setting": "CB1/CB2 receptors", "result": "weak agonist"}, {"measurement": "binding affinities compared to THC, fold lower", "setting": "CB1/CB2 receptors; tissue- or cell-type specific", "result": "10 to 100", "unit": "fold"}, {"measurement": "decrease of mitochondrial membrane potential (ΔΨm)", "setting": "HT22 cells [3]", "result": "approximately 17%"}, {"measurement": "EC50", "setting": "HT22 cells [4]", "result": 2.5, "unit": "µM"}, {"measurement": "glutamate-induced morphological changes", "setting": "HT22 cells [5]; 5 μM pretreatment 1 hr, then 5 mM glutamate 16 hr", "result": "effectively prevented"}, {"measurement": "EC50", "setting": "HT22 cells [5]; Mus musculus, HT-22, 16 h, read-out: EC50 against oxytosis/ferroptosis induced by 5 mM glutamate (FIG. 2G)", "result": 1.89, "unit": "µM"}, {"measurement": "cellular morphology, compound alone", "setting": "HT22 cells [6]; 5 μM, 16 hr, microscopic imaging", "result": "did not induce visual changes in cellular morphology"}, {"measurement": "concentrations at which cytotoxicity was noted", "setting": "HT22 cells [6]; HT22 cells, 16 h", "result": "≥ 500", "unit": "µM"}, {"measurement": "dose up to which no apparent cytotoxicity was observed", "setting": "HT22 cells [6]; HT22 cells, 16 h", "result": "≤ 200", "unit": "µM"}, {"measurement": "protection against RSL3-induced cell death, no FCCP pretreatment", "setting": "[7]; 16 hr", "result": "strong and equivalent protection"}, {"measurement": "protection against RSL3 after FCCP pretreatment (mitochondria-depleted cells)", "setting": "[7]; FCCP 5 μM 24 hr, then 16 hr", "result": "failed to protect; also recorded: did not protect"}, {"measurement": "cell numbers after FCCP pretreatment, co-treatment with compound", "setting": "[7]; FCCP 24 hr, CBN additional 16 hr", "result": "did not further change the cell numbers"}, {"measurement": "inhibition of lipid peroxidation, cell-free", "setting": "[8]", "result": "showed no inhibition"}]}]}
